In ChEMBL document CHEMBL3808385, “Synthesis, antitumor evaluation and molecular docking studies of [1,2,4]triazolo[4,3-b][1,2,4,5]tetrazine derivatives” (Bioorg Med Chem Lett, 2016):
One block for each compound: values may come before it.

What was measured:
BeWo = assay: Cytotoxicity against human Bewo cells assessed as cell growth inhibition after 72 hrs by MTT assay; format: functional, cell-based
MCF7 = assay: Cytotoxicity against human MCF7 cells assessed as cell growth inhibition after 72 hrs by MTT assay; format: functional, cell-based; details: MCF7, 72 h
[1] = Cytotoxicity against human HL60 cells assessed as cell growth inhibition after 72 hrs by MTT assay; format: functional, cell-based; details: HL-60, 72 h
[2] = biological target: T1, Hepatocyte growth factor receptor (Homo sapiens, UniProt P08581); assay: Inhibition of cMET (unknown origin) using TK substrate-biotin as substrate preincubated with compound followed by substrate addition for 40 mins measured after 1 hr by HTRF assay
T1 sequence (P08581 whole entry): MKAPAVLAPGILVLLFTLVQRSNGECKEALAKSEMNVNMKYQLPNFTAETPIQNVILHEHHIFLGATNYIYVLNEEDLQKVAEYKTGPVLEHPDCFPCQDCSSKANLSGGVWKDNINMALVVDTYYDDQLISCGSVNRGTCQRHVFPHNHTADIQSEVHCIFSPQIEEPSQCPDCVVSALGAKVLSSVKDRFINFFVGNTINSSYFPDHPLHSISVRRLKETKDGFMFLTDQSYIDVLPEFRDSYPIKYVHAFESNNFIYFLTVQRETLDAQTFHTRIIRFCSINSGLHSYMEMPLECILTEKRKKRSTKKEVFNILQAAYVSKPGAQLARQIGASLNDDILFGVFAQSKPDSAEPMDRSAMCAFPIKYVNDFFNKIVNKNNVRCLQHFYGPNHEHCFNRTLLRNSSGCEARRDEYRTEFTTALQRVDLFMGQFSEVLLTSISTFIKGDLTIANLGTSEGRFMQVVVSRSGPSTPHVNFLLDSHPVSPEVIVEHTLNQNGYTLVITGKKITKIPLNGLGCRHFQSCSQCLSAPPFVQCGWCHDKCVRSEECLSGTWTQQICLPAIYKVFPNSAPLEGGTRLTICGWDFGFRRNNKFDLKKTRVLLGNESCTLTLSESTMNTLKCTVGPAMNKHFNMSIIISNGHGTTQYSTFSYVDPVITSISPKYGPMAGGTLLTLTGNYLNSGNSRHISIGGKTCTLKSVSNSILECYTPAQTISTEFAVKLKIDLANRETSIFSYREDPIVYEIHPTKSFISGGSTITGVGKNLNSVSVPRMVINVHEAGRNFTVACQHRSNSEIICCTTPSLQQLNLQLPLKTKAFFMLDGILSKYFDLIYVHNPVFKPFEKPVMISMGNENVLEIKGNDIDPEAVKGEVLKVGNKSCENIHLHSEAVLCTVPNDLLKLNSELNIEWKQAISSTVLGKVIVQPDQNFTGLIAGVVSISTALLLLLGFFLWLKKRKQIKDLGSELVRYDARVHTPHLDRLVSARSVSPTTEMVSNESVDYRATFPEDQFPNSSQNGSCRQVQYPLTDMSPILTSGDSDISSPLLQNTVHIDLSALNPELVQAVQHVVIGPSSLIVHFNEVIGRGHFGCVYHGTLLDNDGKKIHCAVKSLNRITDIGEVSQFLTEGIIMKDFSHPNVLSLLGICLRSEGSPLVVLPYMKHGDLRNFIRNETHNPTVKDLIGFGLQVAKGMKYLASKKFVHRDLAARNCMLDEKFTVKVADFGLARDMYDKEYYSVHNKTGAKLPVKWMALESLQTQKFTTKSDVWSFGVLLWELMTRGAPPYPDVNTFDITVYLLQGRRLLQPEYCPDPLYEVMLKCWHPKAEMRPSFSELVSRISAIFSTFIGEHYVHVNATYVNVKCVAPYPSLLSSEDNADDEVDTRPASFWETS

Mus musculus [3] = assay: Toxicity in ICR mouse assessed as convulsions on limbs at 90 mg/kg, ig measured after 14 days; format: organism-based, Limb; details: in vivo, po, 336 h
Mus musculus [4] = assay: Toxicity in ICR mouse assessed as loss of locomotor activity at 72.9 mg/kg, ig measured after 14 days; format: organism-based; details: in vivo, po, 336 h
CCRF S-180 [5] = assay: Antitumor activity against mouse S180 cells xenografted in ICR mouse assessed as tumor growth inhibition at 10 mg/kg, ig administered once daily for 7 days starting from second day post xenograft measured after 10 days; format: functional; details: CCRF S-180, po, read-out: TGI
Mus musculus [6] = assay: Toxicity in ICR mouse assessed as respiratory depression at 81 mg/kg, ig measured after 14 days; format: organism-based; details: in vivo, po, 336 h
Mus musculus [7] = assay: Toxicity in ICR mouse assessed as respiratory depression at 72.9 mg/kg, ig measured after 14 days; format: organism-based; details: in vivo, po, 336 h
Mus musculus [8] = assay: Toxicity in ICR mouse assessed as pulmonary congestion at 81 mg/kg, ig measured after 14 days; format: organism-based; details: in vivo, po, 336 h
CCRF S-180 [9] = assay: Antitumor activity against mouse S180 cells xenografted in ICR mouse assessed as tumor growth inhibition at 5 mg/kg, ig administered once daily for 7 days starting from second day post xenograft measured after 10 days; format: functional; details: CCRF S-180, po, read-out: TGI
Mus musculus [10] = assay: Toxicity in ICR mouse assessed as respiratory depression at 100 mg/kg, ig measured after 14 days; format: organism-based; details: in vivo, po, 336 h
[11] = Toxicity in ICR mouse assessed as mortality at 72.9 mg/kg, ig measured after 14 days; format: organism-based; details: in vivo, po
Mus musculus [12] = assay: Toxicity in ICR mouse assessed as body weight loss at 65.6 mg/kg, ig measured after 14 days; format: organism-based; details: in vivo, po, 336 h
Mus musculus [13] = assay: Toxicity in ICR mouse assessed as pulmonary congestion at 72.9 mg/kg, ig measured after 14 days; format: organism-based; details: in vivo, po, 336 h
Mus musculus [14] = assay: Toxicity in ICR mouse assessed as loss of locomotor activity at 81 mg/kg, ig measured after 14 days; format: organism-based; details: in vivo, po, 336 h
Mus musculus [15] = assay: Toxicity in ICR mouse assessed as loss of locomotor activity at 90 mg/kg, ig measured after 14 days; format: organism-based; details: in vivo, po, 336 h
Mus musculus [16] = assay: Toxicity in ICR mouse assessed as respiratory depression at 90 mg/kg, ig measured after 14 days; format: organism-based; details: in vivo, po, 336 h
[17] = Toxicity in ig dosed ICR mouse assessed as mortality measured after 14 days; format: organism-based; details: in vivo, po
Mus musculus [18] = assay: Toxicity in ICR mouse assessed as convulsions on limbs at 100 mg/kg, ig measured after 14 days; format: organism-based, Limb; details: in vivo, po, 336 h
Mus musculus [19] = assay: Toxicity in ICR mouse assessed as pulmonary congestion at 100 mg/kg, ig measured after 14 days; format: organism-based; details: in vivo, po, 336 h
CCRF S-180 [20] = assay: Antitumor activity against mouse S180 cells xenografted in ICR mouse assessed as tumor growth inhibition at 20 mg/kg, ig administered once daily for 7 days starting from second day post xenograft measured after 10 days; format: functional; details: CCRF S-180, po, read-out: TGI
Mus musculus [21] = assay: Toxicity in ICR mouse assessed as convulsions on limbs at 72.9 mg/kg, ig measured after 14 days; format: organism-based, Limb; details: in vivo, po, 336 h
Mus musculus [22] = assay: Toxicity in ICR mouse assessed as convulsions on limbs at 81 mg/kg, ig measured after 14 days; format: organism-based, Limb; details: in vivo, po, 336 h
Mus musculus [23] = assay: Toxicity in ICR mouse assessed as loss of locomotor activity at 100 mg/kg, ig measured after 14 days; format: organism-based; details: in vivo, po, 336 h
[24] = Toxicity in ICR mouse assessed as mortality at 65.6 mg/kg, ig measured after 14 days; format: organism-based; details: in vivo, po
Mus musculus [25] = assay: Toxicity in ICR mouse assessed as pulmonary congestion at 90 mg/kg, ig measured after 14 days; format: organism-based; details: in vivo, po, 336 h
Mus musculus [26] = assay: Toxicity in ICR mouse assessed as clinical signs parameters at 65.6 mg/kg, ig measured after 14 days; format: organism-based; details: in vivo, po, 336 h
[27] = biological target: T1, Hepatocyte growth factor receptor; assay: Inhibition of cMET (unknown origin) using poly(Glu-Tyr) substrate incubated for 60 mins by ELISA

Structure (SMILES): Cc1ccc(C(=O)N2CCN(c3nnc4nncn4n3)CC2)cc1
- IC50 (BeWo): 14.3 µM
- IC50 (MCF7): 15.9 µM
- IC50 [1]: 9.31 µM

Structure (SMILES): CCCNc1nnc2nncn2n1
- IC50 (BeWo): 14.3 µM
- IC50 (MCF7): 19.8 µM
- IC50 [1]: 15.1 µM

Structure (SMILES): c1nnc2nnc(N3CCCCC3)nn12
- IC50 (BeWo): 10.8 µM
- IC50 (MCF7): 27.2 µM
- IC50 [1]: 23.6 µM

Structure (SMILES): CC(C)(C)C(=O)N1CCN(c2nnc3nncn3n2)CC1
- IC50 (BeWo): 2.41 µM
- IC50 (MCF7): 5.51 µM
- IC50 [1]: 1.38 µM

Structure (SMILES): CC(Nc1nnc2nncn2n1)C(=O)O (stereo not drawn)
- IC50 (BeWo): 82.2 µM
- IC50 (MCF7): > 100 µM
- IC50 [1]: 74.2 µM

Structure (SMILES): OCCNc1nnc2nncn2n1
- IC50 (BeWo): 3.31 µM
- IC50 (MCF7): 11.6 µM
- IC50 [1]: 45.3 µM

Structure (SMILES): c1nnc2nnc(N3CCCC3)nn12
- IC50 (BeWo): 4.29 µM
- IC50 (MCF7): 5.13 µM
- IC50 [1]: 24.4 µM

Structure (SMILES): Nc1nnc2nncn2n1
- IC50 (BeWo): 17.3 µM
- IC50 (MCF7): 46.5 µM
- IC50 [1]: 68.5 µM

- IC50 [2]: 23.7 µM
Structure (SMILES): CC(C)C(=O)N1CCN(c2nnc3nncn3n2)CC1
- IC50 (BeWo): 1.09 µM
- IC50 (MCF7): 1.81 µM
- IC50 [1]: 1.61 µM

Structure (SMILES): CN(C)c1nnc2nncn2n1
- IC50 (BeWo): 0.61 µM
- IC50 (MCF7): 7.76 µM
- IC50 [1]: 4.84 µM

- IC50 [2]: 7.9 µM
Structure (SMILES): O=C(C1CCCCC1)N1CCN(c2nnc3nncn3n2)CC1
- IC50 (BeWo): 1.9 µM
- IC50 (MCF7): 1.26 µM
- IC50 [1]: 1.16 µM

Structure (SMILES): CN1CCN(c2nnc3nncn3n2)CC1
- IC50 (BeWo): 7.99 µM
- IC50 (MCF7): 21.6 µM
- IC50 [1]: 8.54 µM

Structure (SMILES): CCCCCC(=O)N1CCN(c2nnc3nncn3n2)CC1
- IC50 (BeWo): 2.96 µM
- IC50 (MCF7): 5.26 µM
- IC50 [1]: 3.61 µM

Structure (SMILES): CCCC(=O)N1CCN(c2nnc3nncn3n2)CC1
- IC50 (BeWo): 6.73 µM
- IC50 (MCF7): 6.91 µM
- IC50 [1]: 9.84 µM

Structure (SMILES): CCC(=O)N1CCN(c2nnc3nncn3n2)CC1
- IC50 (BeWo): 13.7 µM
- IC50 (MCF7): 14.8 µM
- IC50 [1]: 10.1 µM

Structure (SMILES): O=C(c1ccccc1)N1CCN(c2nnc3nncn3n2)CC1
- IC50 (BeWo): 5.87 µM
- IC50 (MCF7): 8.38 µM
- IC50 [1]: 4.67 µM

Structure (SMILES): c1nnc2nnc(N3CCOCC3)nn12
- Activity (Mus musculus [3]): Toxic
- Activity (Mus musculus [4]): Toxic
- inhibition in vivo at 10 mg/kg (CCRF S-180 [5]): 63%
- Activity (Mus musculus [6]): Toxic
- Activity (Mus musculus [7]): Toxic
- Activity (Mus musculus [8]): Toxic
- inhibition in vivo at 5 mg/kg (CCRF S-180 [9]): 24.2%
- IC50 (BeWo): 1.3 µM
- Activity (Mus musculus [10]): Toxic
- mortality at 336 h [11]: 25%
- Activity (Mus musculus [12]): Non-toxic
- Activity (Mus musculus [13]): Toxic
- IC50 [2]: 11.8 µM
- Activity (Mus musculus [14]): Toxic
- Activity (Mus musculus [15]): Toxic
- Activity (Mus musculus [16]): Toxic
- LD50 at 336 h [17]: 82.5 mg/kg
- IC50 (MCF7): 2.24 µM
- Activity (Mus musculus [18]): Toxic
- Activity (Mus musculus [19]): Toxic
- IC50 [1]: 1.45 µM
- inhibition in vivo at 20 mg/kg (CCRF S-180 [20]): 27.9%
- Activity (Mus musculus [21]): Toxic
- Activity (Mus musculus [22]): Toxic
- Activity (Mus musculus [23]): Toxic
- mortality at 336 h [24]: 0%
- Activity (Mus musculus [25]): Toxic
- Activity (Mus musculus [26]): Non-toxic

Structure (SMILES): Cc1cc(C)n(-c2nnc3nncn3n2)n1
- IC50 (BeWo): 47.3 µM
- IC50 (MCF7): > 100 µM
- IC50 [1]: 63.3 µM

Structure (SMILES): CCCCNc1nnc2nncn2n1
- IC50 (BeWo): 8.64 µM
- IC50 (MCF7): 13.7 µM
- IC50 [1]: 36.2 µM

- IC50 [27]: 0.006 µM
Structure (SMILES): COc1ccc2c(OCc3nnc4nnc(-c5ccccc5)nn34)ccnc2c1

Structure (SMILES): CC(=O)N1CCN(c2nnc3nncn3n2)CC1
- IC50 (BeWo): 13.1 µM
- IC50 (MCF7): 13.9 µM
- IC50 [1]: 14.7 µM

Structure (SMILES): O=C(c1ccc(Cl)cc1)N1CCN(c2nnc3nncn3n2)CC1
- IC50 (BeWo): 7.51 µM
- IC50 (MCF7): 12.8 µM
- IC50 [1]: 12.3 µM

Structure (SMILES): c1ccc(CCNc2nnc3nncn3n2)cc1
- IC50 (BeWo): 2.49 µM
- IC50 (MCF7): 1.24 µM
- IC50 [1]: 4.15 µM

Structure (SMILES): c1nnc2nnc(NC3CCCC3)nn12
- IC50 (BeWo): 34.6 µM
- IC50 (MCF7): 88.2 µM
- IC50 [1]: 38.1 µM

Structure (SMILES): c1ccc(CN2CCN(c3nnc4nncn4n3)CC2)cc1
- IC50 (BeWo): 5.1 µM
- IC50 (MCF7): 27.3 µM
- IC50 [1]: 14.2 µM

Structure (SMILES): CC(C)COC(=O)N1CCN(c2nnc3nncn3n2)CC1
- IC50 (BeWo): 13.1 µM
- IC50 (MCF7): 5.39 µM
- IC50 [1]: 7.93 µM

Structure (SMILES): O=C(c1ccc([N+](=O)[O-])cc1)N1CCN(c2nnc3nncn3n2)CC1
- IC50 (BeWo): 3.1 µM
- IC50 (MCF7): 4.53 µM
- IC50 [1]: 17.2 µM

Structure (SMILES): CCCCC(=O)N1CCN(c2nnc3nncn3n2)CC1
- IC50 (BeWo): 1.72 µM
- IC50 (MCF7): 2.76 µM
- IC50 [1]: 3.13 µM

Structure (SMILES): OCC(CO)(CO)Nc1nnc2nncn2n1
- IC50 (BeWo): 12.4 µM
- IC50 (MCF7): > 100 µM
- IC50 [1]: > 100 µM

Structure (SMILES): c1nnc2nnc(NC3CCCCC3)nn12
- IC50 (BeWo): 2.65 µM
- IC50 (MCF7): 3.51 µM
- IC50 [1]: 6.61 µM

Structure (SMILES): O=C(Cc1ccccc1)N1CCN(c2nnc3nncn3n2)CC1
- IC50 (BeWo): 2.77 µM
- IC50 (MCF7): 3.08 µM
- IC50 [1]: 1.85 µM
